The text below walks through data of patent US12692261B2, “Substituted heterocyclic compounds and therapeutic uses thereof” (Bayer Aktiengesellschaft, priority 2020, dated 2026).

Common to all, as to format: biochemical
For experiment [1], the target named is T1, full-length human CSNK1A1 (Homo sapiens, UniProt P48729).
T1 construct: N-terminal Glutathion-S-Transferase (GST) and full-length human CSNK1A1; purchased Life Technologies PV4174; host or cells: baculovirus infected insect cells
Briefly: CSNK1A1 High ATP Assay (ADP-Glo, 1 mM ATP).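 Also: 30 min kinase reaction at 22 °C with 100 µM peptide substrate.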 Particulars: Table 3, read-out: CSNK1A1 high ATP assay IC50 [mol/l] (median). The method, then: CSNK1A1-inhibitory activity of compounds of the present invention in presence of 1 mM adenosine-tri-phosphate (ATP) was quantified employing the CSNK1A1-high-ATP-assay as described in the following paragraphs. In essence, the enzyme activity is measured by quantification of the adenosine-di-phosphate (ADP), which is generated as a co-product of the enzyme reaction, via the “ADP-Glo™ Kinase Assay” kit from the company Promega. This detection system works as follows: In a first step the ATP not consumed in the kinase reaction is quantitatively converted to cAMP employing an adenylate cyclase (“ADP-Glo-reagent”), then the adenylate cyclase is stopped and the ADP generated in the kinase reaction converted to ATP which generates in a luciferase-based reaction a glow-luminescence signal (“Kinase Detection Reagent”).
(§1) Recombinant fusion protein of N-terminal Glutathion-S-Transferase (GST) and full-length human CSNK1A1, expressed by baculovirus infected insect cells and purified via Glutathion affinity chromatography, was purchased from Life Technologies (product no. PV4174) and used as enzyme. As substrate for the kinase reaction the biotinylated peptide biotin-Ahx-KRRRAL-pS-VASLPGL (C-terminus in amide form) was used which can be purchased e.g. from the company Biosyntan (Berlin-Buch, Germany).
For the assay 50 nl of a 100 fold concentrated solution of the test compound in DMSO was pipetted into a white low volume 384-well microtiter plate (Greiner Bio-One, Frickenhausen, Germany), 2 μL of a solution of CSNK1A1 in aqueous assay buffer [50 mM HEPES pH 7.5, 10% (v/v) glycerol, 10 mM MgCl2, 50 mM NaCl, 1 mM dithiothreitol, 0.01% (w/v) bovine serum albumin, 0.01% (v/v) Triton X-100] were added and the mixture was incubated for 15 min at 22° C. to allow pre-binding of the test compounds to the enzyme before the start of the kinase reaction. […] The concentration of CSNK1A1 was adjusted depending of the activity of the enzyme lot and was chosen appropriate to have the assay in the linear range, a typical concentration is about 0.4 ng/μL. The reaction was stopped by the addition of 2.5 μL of “ADP-Glo-reagent” (1:1.5 fold diluted with water) and the resulting mixture was incubated at 22° C. for 1 h to convert the ATP not consumed in the kinase reaction completely […]. Subsequently 2.5 μL of the “kinase detection reagent” (1.2 fold more concentrated than recommended by the producer) were added, the resulting mixture was incubated at 22° C. for 1 h and then the luminescence measured with a suitable measurement instrument (e.g. Viewlux™ from Perkin-Elmer). The amount of emitted light was taken as a measure for the amount of ADP generated and thereby for the activity of the CSNK1A1.
Background: In ADP-Glo the light output rises with the ADP produced.

In the next experiment the target is T2, full-length human CSNK1D (Homo sapiens, UniProt P48730).
T2 construct: N-terminal Glutathion-S-Transferase (GST) and full-length human CSNK1D; purchased Life Technologies PV3665; host or cells: baculovirus infected insect cells
The experiment in a line: CSNK1D Assay (ADP-Glo, 1 μM ATP). Particulars: Table 3, read-out: CSNK1D IC50 [mol/l] (median). Here is the method:
CSNK1D-inhibitory activity of compounds of the present invention in presence of 1 μM adenosine-tri-phosphate (ATP) was quantified employing the CSNK1 D assay as described in the following paragraphs. In essence, the enzyme activity is measured by quantification of the adenosine-di-phosphate (ADP), which is generated as a co-product of the enzyme reaction, via the “ADP-Glo™ Kinase Assay” kit from the company Promega. This detection system works as follows: In a first step the ATP not consumed in the kinase reaction is quantitatively converted to cAMP employing an adenylate cyclase (“ADP-Glo-reagent”), then the adenylate cyclase is stopped and the ADP generated in the kinase reaction converted to ATP which generates in a luciferase-based reaction a glow-luminescence signal (“Kinase Detection Reagent”).
Recombinant fusion protein of N-terminal Glutathion-S-Transferase (GST) and full-length human CSNK1D, expressed by baculovirus infected insect cells and purified via Glutathion affinity chromatography, was purchased from Life Technologies (product no. PV3665) and used as enzyme. As substrate for the kinase reaction the biotinylated peptide Btn-Ahx-[…] (C-terminus in amide form) was used which can be purchased e.g. from the company Biosyntan (Berlin-Buch, Germany).
For the assay 50 nl of a 100 fold concentrated solution of the test compound in DMSO was pipetted into a white 1536-well microtiter plate (Greiner Bio-One, Frickenhausen, Germany), 2 μL of a solution of CSNK1D in aqueous assay buffer [50 mM HEPES pH 7.5, 10% (v/v) glycerol, 10 mM MgCl2, 50 mM NaCl, 1 mM dithiothreitol, 0.01% (w/v) bovine serum albumin, 0.01% (v/v) Triton X-100] were added and the mixture was incubated for 15 min at 22° C. to allow pre-binding of the test compounds to the enzyme before the start of the kinase reaction. […] The concentration of CSNK1D was adjusted depending of the activity of the enzyme lot and was chosen appropriate to have the assay in the linear range, a typical concentration is about 0.5 ng/μL. The reaction was stopped by the addition of 2.5 μL of “ADP-Glo-reagent” (1:1.5 fold diluted with water) and the resulting mixture was incubated at 22° C. for 1 h to convert the ATP not consumed in the kinase reaction completely […]. Subsequently 2.5 μL of the “kinase detection reagent” (1.2 fold more concentrated than recommended by the producer) were added, the resulting mixture was incubated at 22° C. for 1 h and then the luminescence measured with a suitable measurement instrument (e.g. Viewlux™ from Perkin-Elmer). The amount of emitted light was taken as a measure for the amount of ADP generated and thereby for the activity of the CSNK1D.

Experiment [2] deals with T1, full-length human CSNK1A1. Briefly: CSNK1A1 Assay 2 (ADP-Glo, 1 μM ATP, substrate biotin-Ahx-KRRRAL-pS-VASLPGL). The following applies: Table 3, read-out: CSNK1A1 Assay 2 IC50 [mol/l] (median). Here is the method:
CSNK1A1-inhibitory activity of compounds of the present invention in presence of 1 μM adenosine-tri-phosphate (ATP) was quantified employing the CSNK1A1 assay as described in the following paragraphs. In essence, the enzyme activity is measured by quantification of the adenosine-di-phosphate (ADP), which is generated as a co-product of the enzyme reaction, via the “ADP-Glo™ Kinase Assay” kit from the company Promega. This detection system works as follows: In a first step the ATP not consumed in the kinase reaction is quantitatively converted to cAMP employing an adenylate cyclase (“ADP-Glo-reagent”), then the adenylate cyclase is stopped and the ADP generated in the kinase reaction converted to ATP which generates in a luciferase-based reaction a glow-luminescence signal (“Kinase Detection Reagent”).
as §1
For the assay 50 nl of a 100 fold concentrated solution of the test compound in DMSO was pipetted into a white 1536-well microtiter plate (Greiner Bio-One, Frickenhausen, Germany), 2 μL of a solution of CSNK1A1 in aqueous assay buffer [50 mM HEPES pH 7.5, 10% (v/v) glycerol, 10 mM MgCl2, 50 mM NaCl, 1 mM dithiothreitol, 0.01% (w/v) bovine serum albumin, 0.01% (v/v) Triton X-100] were added and the mixture was incubated for 15 min at 22° C. to allow pre-binding of the test compounds to the enzyme before the start of the kinase reaction. […] The concentration of CSNK1A1 was adjusted depending of the activity of the enzyme lot and was chosen appropriate to have the assay in the linear range, a typical concentrations are about 0.0375 ng/μL. The reaction was stopped by the addition of 2.5 μL of “ADP-Glo-reagent” (1:1.5 fold diluted with water) and the resulting mixture was incubated at 22° C. for 1 h to convert the ATP not consumed in the kinase reaction completely […]. Subsequently 2.5 μL of the “kinase detection reagent” (1.2 fold more concentrated than recommended by the producer) were added, the resulting mixture was incubated at 22° C. for 1 h and then the luminescence measured with a suitable measurement instrument (e.g. Viewlux™ from Perkin-Elmer). The amount of emitted light was taken as a measure for the amount of ADP generated and thereby for the activity of the CSNK1A1.

pIC50: −log10 of the molar value.

T1 sequence (P48729 whole entry): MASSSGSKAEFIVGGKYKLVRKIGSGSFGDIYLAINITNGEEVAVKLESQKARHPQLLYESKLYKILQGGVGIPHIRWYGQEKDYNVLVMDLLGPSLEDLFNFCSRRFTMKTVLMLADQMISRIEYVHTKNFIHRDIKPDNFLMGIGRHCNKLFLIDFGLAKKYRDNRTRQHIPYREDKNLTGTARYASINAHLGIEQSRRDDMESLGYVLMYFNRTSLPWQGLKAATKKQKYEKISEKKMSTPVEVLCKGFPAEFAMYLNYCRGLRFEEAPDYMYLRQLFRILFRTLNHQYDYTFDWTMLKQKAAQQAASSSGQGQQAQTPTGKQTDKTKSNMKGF
T2 sequence (P48730 whole entry): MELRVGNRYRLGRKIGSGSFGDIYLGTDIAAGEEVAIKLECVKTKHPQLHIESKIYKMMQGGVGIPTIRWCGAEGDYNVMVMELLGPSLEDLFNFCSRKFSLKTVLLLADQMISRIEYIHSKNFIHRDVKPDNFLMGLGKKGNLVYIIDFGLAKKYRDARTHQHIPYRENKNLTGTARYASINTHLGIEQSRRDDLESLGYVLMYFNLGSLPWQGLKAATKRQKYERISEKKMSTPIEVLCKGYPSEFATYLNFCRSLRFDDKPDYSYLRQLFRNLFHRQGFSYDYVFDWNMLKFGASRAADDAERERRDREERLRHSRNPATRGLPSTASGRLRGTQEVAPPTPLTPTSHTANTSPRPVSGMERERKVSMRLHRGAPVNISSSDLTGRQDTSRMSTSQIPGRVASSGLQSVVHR

Turning to `O=C(Nc1cc(-c2[nH]c3cc(Cl)cnc3c2-c2ccccn2)ccn1)C(CC(F)F)c1ccc(F)cc1` (stereo not drawn) [Example 87, N-{4-[6-chloro-3-(pyridin-2-yl)-1H-pyrrolo[3,2-b]pyridin-2-yl]pyridin-2-yl}-4,4-difluoro-2-(4-fluorophenyl)butanamide], the pIC50 in experiment [1] was 8.22; on full-length human CSNK1D, 7.97; in experiment [2], 8.22.
As for `O=C(Nc1cc(-c2[nH]c3nc(OC(F)F)cnc3c2-c2ccccn2)ccn1)C(CC(F)F)c1ccc(F)cc1` (single isomer, unassigned) [Example 107, N-{4-[3-(difluoromethoxy)-7-(pyridin-2-yl)-5H-pyrrolo[2,3-b]pyrazin-6-yl]pyridin-2-yl}-4,4-difluoro-2-(4-fluorophenyl)butanamide], the pIC50 in experiment [1] is 7.19; at full-length human CSNK1D, 6.93; in experiment [2] it was 7.19.
Consider `COCCOc1cc(F)nc2c(-c3ccccn3)c(-c3ccnc(NC(=O)C(CC(F)F)c4ccc(F)cc4)c3)[nH]c12` (single isomer, unassigned) [Example 91, (2R or S)-4,4-difluoro-N-{4-[5-fluoro-7-(2-methoxyethoxy)-3-(pyridin-2-yl)-1H-pyrrolo[3,2-b]pyridin-2-yl]pyridin-2-yl}-2-(4-fluorophenyl)butanamide], for which the pIC50 is 8.02 in experiment [1], 7.63 at full-length human CSNK1D and 8.02 in experiment [2].
As to `O=C(Nc1cc(-c2[nH]c3c(OC4CC4)cc(F)nc3c2-c2ccccn2)ccn1)C(CC(F)F)c1ccc(F)cc1` (single isomer, unassigned) [Example 44, N-{4-[7-(cyclopropyloxy)-5-fluoro-3-(pyridin-2-yl)-1H-pyrrolo[3,2-b]pyridin-2-yl]pyridin-2-yl}-4,4-difluoro-2-(4-fluorophenyl)butanamide], the results for the pIC50 (in experiment [1]; on full-length human CSNK1D; in experiment [2]) were 8.22, 8.27 and 8.22, respectively.
With `Cc1cc(F)nc2c(-c3ccccn3)c(-c3ccnc(NC(=O)C(CC(F)F)c4ccc(F)cc4)c3)[nH]c12` (single isomer, unassigned; (+)) [Example 37, (+)-4,4-difluoro-N-{4-[5-fluoro-7-methyl-3-(pyridin-2-yl)-1H-pyrrolo[3,2-b]pyridin-2-yl]pyridin-2-yl}-2-(4-fluorophenyl)butanamide], the pIC50 in experiment [1] is 8.40; at full-length human CSNK1D, 8.08; in experiment [2], 8.40.
With `COCCOc1cc(F)nc2c(-c3ccccn3)c(-c3ccnc(NC(=O)C(CC(F)F)c4ccc(F)cc4)c3)[nH]c12` (single isomer, unassigned) [Example 90, (2R or S)-4,4-difluoro-N-{4-[5-fluoro-7-(2-methoxyethoxy)-3-(pyridin-2-yl)-1H-pyrrolo[3,2-b]pyridin-2-yl]pyridin-2-yl}-2-(4-fluorophenyl)butanamide], the pIC50 in experiment [1] was 8.61; on full-length human CSNK1D, 8.60; in experiment [2] it was 8.61.
Regarding `O=C(Nc1cc(-c2[nH]c3ccc(F)nc3c2-c2ccc(F)cn2)ccn1)C(CC(F)F)c1ccc(F)cc1` (stereo not drawn) [Example 108, 4,4-difluoro-N-{4-[5-fluoro-3-(5-fluoropyridin-2-yl)-1H-pyrrolo[3,2-b]pyridin-2-yl]pyridin-2-yl}-2-(4-fluorophenyl)butanamide], the results for the pIC50 (in experiment [1]; on full-length human CSNK1D; in experiment [2]) were 8.34, 8.23 and 8.34, respectively.
For the compound `O=C(Nc1cc(-c2[nH]c3nc(OC(F)F)cnc3c2-c2ccccn2)ccn1)C(CC(F)F)c1ccc(F)cc1` (single isomer, unassigned) [Example 106, N-{4-[3-(difluoromethoxy)-7-(pyridin-2-yl)-5H-pyrrolo[2,3-b]pyrazin-6-yl]pyridin-2-yl}-4,4-difluoro-2-(4-fluorophenyl)butanamide], the pIC50 in experiment [1] was 8.36; on full-length human CSNK1D, 8.21; in experiment [2], 8.36.
